US6323203A, “Composition and method for treating diabetes” (Beyer; Camille F., priority 2000, dated 2001)

Key:
[1] = Single-blind, three-phase crossover study of single oral doses: blood analyses of metabolic, hormonal and electrolyte parameters in 8 normal male subjects; assay type: in vivo, human; conditions: for Free fatty acids, mean / Angiotensin I, mean / Renin, mean / C-peptide, mean / Potassium, mean / Uric acid, mean / Aldosterone, mean / Insulin, mean / Urea, mean / VLDL Cholesterol, mean / Norepinephrine, mean / HDL Cholesterol, mean / Glucose, mean / Triglycerides, mean / LDL Cholesterol, mean / Total cholesterol, mean / Fibrinogen, mean: 8 normal subjects; for Free fatty acids, mean: 0 h: PZG 0.47, PZA 0.51; for Angiotensin I, mean: 0 h: PZG 0.84, PZA 0.66; for Renin, mean: 0 h: PZG 1.0, PZA 1.5; for C-peptide, mean: 0 h: PZG 1.1, PZA 1.2; for Potassium, mean: 0 h: PZG 4.2, PZA 4.0; for Uric acid, mean: 0 h: PZG 6.0, PZA 5.6; for Aldosterone, mean: 0 h: PZG 8.6, PZA 13.6; for Insulin, mean: 0 h: PZG 8.8, PZA 5.4; for Urea, mean: 0 h: PZG 17, PZA 17; for VLDL Cholesterol, mean: 0 h: PZG 20, PZA 17; for Norepinephrine, mean: 0 h: PZG 37, PZA 75; for HDL Cholesterol, mean: 0 h: PZG 41, PZA 46; for Glucose, mean: 0 h: PZG 87, PZA 84; for Triglycerides, mean: 0 h: PZG 101, PZA 86; for LDL Cholesterol, mean: 0 h: PZG 107, PZA 104; for Total cholesterol, mean: 0 h: PZG 168, PZA 167; for Fibrinogen, mean: 0 h: PZG 266, PZA 293
Experimental: A three-phase study, where single oral doses of placebo, followed in one week by 900 mg of pyrazinoylguanidine (PZG), followed in three weeks by 300 mg of pyrazinoic acid (PZA), involving normal male subjects, was carried out to compare and contrast metabolic effects of single doses of PZG and PZA. A purpose of the study was to determine whether the metalbolic effects observed after 3 and also 21 days of PZG administration in patients with renal disease or with diabetes also occurred after a single oral dose. […]
(§1) Eight male nonsmoking subjects aged 24-32 participated. They were normal by history, physical exam and routine laboratory analysis of blood and urine.
(§2) This was a single-blind, three-phase crossover study beginning after a 10-hour fast at 8 a.m., designated time 0 (control), when the first venipuncture occurred. In phase I, three capsules of lactose were given orally, followed by venipunctures 2 and 4 h later. In phase II, 1 week later, after a control blood specimen drawn at 8 a.m., PZG (900 mg) was given orally and blood specimens taken 2 and 4 h thereafter. In phase III, 3 weeks later, after a control blood specimen drawn at 8 a.m., PZA (300 mg) was given orally and blood specimens taken 2 and 4 h later.
(§3) Each phase consisted of taking three capsules, each containing 300 mg. In phase I, all three capsules were of lactose; in phase II, all three were PZG; and in phase III, two capsules were lactose and one PZA. All capsules appeared indistinguishable and were given to each subject who swallowed them with water in the presence of an investigator.
(§4) Once obtained, blood specimens were immediately spun. Refrigerated serum or plasma was analyzed within 24 h for glucose, insulin, electrolytes, blood urea nitrogen, creatinine, liver function tests, triglycerides, total cholesterol, high-density lipoprotein (HDL) cholesterol, low-density lipoprotein (LDL) cholesterol, very-low-density lipoprotein (VLDL) cholesterol, free fatty acids, and fibrinogen.
Repeated measures of analysis of variance were used to compare each subject's placebo, PZG and PZA phase. Two-tailed Student t-tests were performed between groups. All results are reported as means ±SD. Statistical significance was considered when p<0.05. The results are illustrated in Tables 1-4.

[2] = Serum concentration of PZG or PZA after single oral dose in the crossover study; assay type: in vivo; conditions: human, 900 mg, 8 normal subjects
Experimental: as §1, §2, §3, §4

[3] = tested on: cutaneous vasomotor reaction of blush area; test: Cutaneous vasomotor response (and tolerability) after a single oral dose in 8 male volunteers; assay type: in vivo, human; conditions: single oral dose, 900 mg PZG
Experimental: as §1, §2
Comparisons of mean serum or plasma concentrations ±SD during placebo, PZG and PZA phases are presented in Table 1 for glucose, insulin, C-peptide, free fatty acids and norepinephrine. Comparisons of mean serum or plasma concentrations ±SD during these three phases are presented in Table 2 for triglycerides, VLDL, LDL, HDL, total cholesterol, fibrinogen and serum PZG and PZA concentrations. Note the close agreement of serum PZG and PZA concentrations at 2 h and also at 4 h after their administration. Table 3 compares mean serum or plasma concentrations ±SD of renin, angiotensin I, adlosterone, potassium, urea and uric acid during the three phases of the study. […] In an earlier pilot experiment to determine serum PZA concentrations following different PZA doses, a first subject ([…]) after a single oral dose of 300 mg PZA developed unexpectedly a typical cutaneous vasomotor reaction of their blush area which included flushed, warm skin of face, neck and shoulders with a mild rash for about 90 min. […] They described the reaction variously as warm redness or flushed head and neck, rash and itching (Table 4). These reactions, which were graded from 6 (most severe) to 0 (not observed), lasted from 30 min in 3 subjects to 4 h in 1 subject. […] No significant correlation occurred between score of reaction (effect+duration) and PZA peak blood concentration among the subjects (r=0.281) (Table 4).
^1 Score = warm + redness (flush) + rash + itching + duration. Duration
as 0.5 h, 1, 2, 4 h (reaction and duration as noted).

[4] = 2 h after single oral dose (PZG 900 mg, PZA 300 mg)
[5] = 4 h after single oral dose (PZG 900 mg, PZA 300 mg)

SMILES: NC(N)=NC(=O)c1cnccn1 [PZG, pyrazinoylguanidine]
- Free fatty acids, mean [1, 4]: 0.20 meq/l
- Angiotensin I, mean [1, 4]: 0.86 ng/ml per h
- Renin, mean [1, 4]: 1.2 ng/ml per h
- C-peptide, mean [1, 4]: 0.9 ng/mL
- Potassium, mean [1, 4]: 4.5 meg/l
- Uric acid, mean [1, 4]: 6.0 mg/dL
- Aldosterone, mean [1, 4]: 10.0 ng/dL
- Insulin, mean [1, 4]: 6.2 μlU/ml
- Urea, mean [1, 4]: 17 mg/dL
- VLDL Cholesterol, mean [1, 4]: 18 mg/dL
- Norepinephrine, mean [1, 4]: 53 pg/mL
- HDL Cholesterol, mean [1, 4]: 42 mg/dL
- Glucose, mean [1, 4]: 84 mg/dL
- Triglycerides, mean [1, 4]: 91 mg/dL
- LDL Cholesterol, mean [1, 4]: 107 mg/dL
- Total cholesterol, mean [1, 4]: 167 mg/dL
- Fibrinogen, mean [1, 4]: 273 mg/dL
- Free fatty acids, mean [1, 5]: 0.19 meq/l
- Angiotensin I, mean [1, 5]: 1.0 ng/ml per h
- Renin, mean [1, 5]: 1.8 ng/ml per h
- C-peptide, mean [1, 5]: 0.6 ng/mL
- Potassium, mean [1, 5]: 4.3 meg/l
- Uric acid, mean [1, 5]: 6.2 mg/dL
- Aldosterone, mean [1, 5]: 9.5 ng/dL
- Insulin, mean [1, 5]: 3.4 μlU/ml
- Urea, mean [1, 5]: 16 mg/dL
- VLDL Cholesterol, mean [1, 5]: 16 mg/dL
- Norepinephrine, mean [1, 5]: 113 pg/mL
- HDL Cholesterol, mean [1, 5]: 42 mg/dL
- Glucose, mean [1, 5]: 80 mg/dL
- Triglycerides, mean [1, 5]: 79 mg/dL
- LDL Cholesterol, mean [1, 5]: 113 mg/dL
- Total cholesterol, mean [1, 5]: 171 mg/dL
- Fibrinogen, mean [1, 5]: 273 mg/dL
- effect on potassium blood concentrations ([1]; single oral dose, within 4 h): not changed
- concentration at 2 h ([2]; 2 h after single oral dose (PZG 900 mg, PZA 300 mg), read-out: Serum concentration of PZG or PZA, mean): 5100 ng/mL
- concentration at 4 h [2, 5]: 3000 ng/mL
- adverse reactions [3]: no adverse reaction
- tolerability [3]: well tolerated
